The nature of this assay: Heparin-affinity chromatography (heparin binding). As to conditions: heparin-sepharose; eluted in high-affinity fraction 0.7M to 2.0M NaCl. An excerpt: The eluted proteins are then contacted with a heparin affinity resin. The ordinarily skilled artisan will readily realize that this step is best achieved in a column chromatography mode. Heparin affinity columns are commercially available from some of the same vendors mentioned above. In this step, the molecules of interest, both MPF-4 or CPF-4, bind to the heparin column and are eluted using an increasing linear salt gradient. The preferred salt is NaCl, and the portion of the gradient that is preferably collected is the 0.1-2.0M portion. The more highly preferred portion of the gradient to collect is the 0.7-2.0M portion.
The C4-pool was further fractionated by heparin affinity chromatography on a Econo-pac™ 5 ml heparin-sepharose cartridge (BioRad, Richmond, Calif. 94804). The bound proteins were eluted by a linear gradient of 0 to 2.0M NaCl in phosphate buffer saline (PBS) at a flow rate of 2.0 ml/min. The proteins that eluted from the column were pooled into three fractions: (1) non-heparin binding (flow through), (2) low-affinity heparin binding (0 to 0.7M NaCl), and (3) high-affinity heparin binding (0.7M to 2.0M NaCl) fractions.
The high affinity heparin binding fraction (3) (0.7M to 2.0M NaCl) was applied to a Vydac™ 0.46×10 cm C-4 HPLC column (The Marshall Co.; Worthington, Ohio 43085), previously equilibrated with 27% acetonitrile, 0.1% TFA. […]

Positions of bridges follow the written chain, without caps; N, C: chain ends. Chains are numbered I, II in the order given. No end group written: not given here.

“MPF-4: Naturally-occurring 54 amino acid protein (SEQ ID NO:1), homologous with the 54 C-terminal residues of PF-4, beginning with Ser-17 (SQVRPRHITSLEVIKAGPHCPTAQLIATLKNGRKICLDLQAPLYKKIIKKLLES)”: the heparin binding result is listed as “bind heparin”.

B1: CPF-4: Proteolytically cleaved, non-reduced PF-4: 16 amino acid chain (SEQ ID NO:2) disulfide bonded to the 54 amino acid chain of MPF-4 (protein)
chain 1: EAEEDGDLQCLCVKTT
chain 2: SQVRPRHITSLEVIKAGPHCPTAQLIATLKNGRKICLDLQAPLYKKIIKKLLES
modifications: disulfide I:10-II:20, I:12-II:36; not fully specified
B1: the heparin binding entry is given as “bind heparin”.

For the origin of these results see patent publication US5935928A, “Modified platelet factor-4” (Eli Lilly and Company, priority 1996, dated 1999).
